Reference: patent publication EP4818157A1, “N-SUBSTITUTED CYCLIC AMIDE COMPOUND” (Kissei Pharmaceutical Co., Ltd., priority 2023, dated 2025)
Like-named read-outs stand apart in the source and are kept apart here.

Key:
TSHR = target: T1, TSHR (Mus musculus, UniProt P47750); details: cited from earlier work
T1 construct: host or cells: mouse, in vivo (TRH- or M22-administered)

human TSHR = target: T2, human TSHR (Homo sapiens, UniProt P16473); test: Measurement of antagonist activity using TSH-induced cAMP production in human TSHR-stably expressing CHO cells; assay type: cell-based; details: human TSH final concentration 50 ng/mL
T2 construct: expressed in transfected cells
In short: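 CHO cells stably expressing human TSHR, in HBSS/20 mM HEPES/1 mM IBMX, pre-incubated with compound 15 min at room temperature, then stimulated 1 h at 37°C with human TSH (50 ng/mL final). cAMP measured by HTRF (665/620 nm), expressed as % of control; IC50 from concentration-response.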

T2 sequence (P16473 21-764): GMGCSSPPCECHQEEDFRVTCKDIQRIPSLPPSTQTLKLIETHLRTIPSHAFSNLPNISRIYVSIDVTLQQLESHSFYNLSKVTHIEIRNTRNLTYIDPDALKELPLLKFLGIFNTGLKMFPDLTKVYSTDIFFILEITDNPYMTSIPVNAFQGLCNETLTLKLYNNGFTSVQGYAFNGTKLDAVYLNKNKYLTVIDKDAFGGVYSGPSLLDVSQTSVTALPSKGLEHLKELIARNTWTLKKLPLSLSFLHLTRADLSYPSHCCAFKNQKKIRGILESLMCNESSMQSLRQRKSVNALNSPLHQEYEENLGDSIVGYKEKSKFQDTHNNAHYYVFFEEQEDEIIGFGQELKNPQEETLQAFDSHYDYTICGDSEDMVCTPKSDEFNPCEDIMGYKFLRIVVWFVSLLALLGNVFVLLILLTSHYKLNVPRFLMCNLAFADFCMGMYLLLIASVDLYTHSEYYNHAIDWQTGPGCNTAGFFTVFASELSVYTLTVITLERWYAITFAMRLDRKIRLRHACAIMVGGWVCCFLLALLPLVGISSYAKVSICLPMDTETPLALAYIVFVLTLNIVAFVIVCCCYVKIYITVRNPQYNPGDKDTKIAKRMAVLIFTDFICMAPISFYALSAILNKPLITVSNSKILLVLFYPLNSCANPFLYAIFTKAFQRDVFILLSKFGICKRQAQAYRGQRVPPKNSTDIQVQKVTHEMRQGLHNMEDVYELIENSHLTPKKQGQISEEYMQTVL
T1 sequence (P47750 22-764): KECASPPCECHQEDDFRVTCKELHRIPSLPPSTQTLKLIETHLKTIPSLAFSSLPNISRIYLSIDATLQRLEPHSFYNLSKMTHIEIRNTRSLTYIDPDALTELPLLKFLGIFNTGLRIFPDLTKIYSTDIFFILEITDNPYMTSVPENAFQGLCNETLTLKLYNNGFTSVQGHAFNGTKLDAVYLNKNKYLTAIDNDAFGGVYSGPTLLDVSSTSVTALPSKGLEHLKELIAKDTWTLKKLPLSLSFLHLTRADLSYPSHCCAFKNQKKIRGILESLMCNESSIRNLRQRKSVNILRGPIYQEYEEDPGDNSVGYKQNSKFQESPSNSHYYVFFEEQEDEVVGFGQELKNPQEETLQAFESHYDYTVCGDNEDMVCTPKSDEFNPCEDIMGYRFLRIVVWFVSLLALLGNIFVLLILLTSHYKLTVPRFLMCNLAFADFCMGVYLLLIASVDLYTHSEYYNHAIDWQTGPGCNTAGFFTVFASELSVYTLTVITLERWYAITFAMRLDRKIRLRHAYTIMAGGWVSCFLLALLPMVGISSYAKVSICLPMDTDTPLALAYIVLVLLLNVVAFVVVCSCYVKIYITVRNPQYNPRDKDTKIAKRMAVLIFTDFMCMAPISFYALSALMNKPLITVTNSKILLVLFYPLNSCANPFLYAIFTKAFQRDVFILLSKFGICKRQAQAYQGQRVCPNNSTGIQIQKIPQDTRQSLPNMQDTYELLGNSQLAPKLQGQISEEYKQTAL

SMILES	blood T4 concentration (TSHR; TSH-releasing hormone (TRH)-administered mouse)	blood T4 concentration (TSHR; thyroid-stimulating antibody (M22)-administered mouse)	IC50 (human TSHR)
COc1ccc(C2Nc3ccccc3C(=O)N2Cc2ccco2)cc1COc1c(C)cc(NC(C)=O)cc1C (stereo not drawn) [NCGC00242364]	lowering a blood T4 concentration	lowering a blood T4 concentration	–
C[C@@H]1CC[C@@H](NC(N)=O)C(=O)N1Cc1cc(Br)ccc1F (relative stereo) [Example A-1, 1-((3R^*,6R^*)-1-(5-bromo-2-fluorobenzyl)-6-methyl-2-oxopiperidin-3-yl)urea]	–	–	3 to 30 µM
NC(=O)N[C@@H]1CC[C@@H]2CC[C@@H](Cc3ccccc3C(F)(F)F)N2C1=O [Example D-3, 1-((3S,6R,8aR)-5-oxo-3-(2-(trifluoromethyl)benzyl)octahydroindolizin-6-yl)urea]	–	–	3 to 30 µM
NC(=O)N[C@@H]1Cc2ccc(C(F)F)cc2N(Cc2cccc(C(F)(F)F)n2)C1=O [Example F-2, (R)-1-(7-(difluoromethyl)-2-oxo-1-((6-(trifluoromethyl)pyridin-2-yl)methyl)-1,2,3,4-tetrahydroquinolin-3-yl)urea]	–	–	< 3 µM
C[C@@H]1CC[C@@H](NC(N)=O)C(=O)N1Cc1cc(C#CC2CC2)ccc1F (relative stereo) [Example A-10, 1-((3R^*,6R^*)-1-(5-(cyclopropylethynyl)-2-fluorobenzyl)-6-methyl-2-oxopiperidin-3-yl)urea]	–	–	3 to 30 µM
NC(=O)N[C@@H]1Cc2ccc(F)cc2N(Cc2cc(C(F)(F)F)cc(Cl)c2F)C1=O [Example C-21, (R)-1-(1-(3-chloro-2-fluoro-5-(trifluoromethyl)benzyl)-7-fluoro-2-oxo-1,2,3,4-tetrahydroquinolin-3-yl)urea]	–	–	< 3 µM
NC(=O)Nc1ccc(CO)n(Cc2cc(C(F)(F)F)cc(Cl)c2F)c1=O [Example E-1, 1-(1-(3-chloro-2-fluoro-5-(trifluoromethyl)benzyl)-6-(hydroxymethyl)-2-oxo-1,2-dihydropyridin-3-yl)urea]	–	–	< 3 µM
NC(=O)CC1Oc2ccccc2N(Cc2cc(C(F)(F)F)ccc2F)C1=O (stereo not drawn) [Example F-7, 2-(4-(2-fluoro-5-(trifluoromethyl)benzyl)-3-oxo-3,4-dihydro-2H-benzo[b][1,4]oxazin-2-yl)acetamide]	–	–	> 30 µM
NC(=O)N[C@@H]1Cc2ccc(F)cc2N(Cc2cc(C(F)F)ccc2F)C1=O [Example C-11, (R)-1-(1-(5-(difluoromethyl)-2-fluorobenzyl)-7-fluoro-2-oxo-1,2,3,4-tetrahydroquinolin-3-yl)urea]	–	–	< 3 µM
NC(=O)Nc1ccc2n(c1=O)CC(c1cccc(C(F)(F)F)c1)C2 (stereo not drawn) [Example E-7, 1-(5-oxo-2-(3-(trifluoromethyl)phenyl)-1,2,3,5-tetrahydroindolizin-6-yl)urea]	–	–	3 to 30 µM
NC(=O)N[C@@H]1Cc2ccc(C(N)=O)cc2N(Cc2cc(C(F)(F)F)ccc2F)C1=O [Example C-30, (R)-1-(2-fluoro-5-(trifluoromethyl)benzyl)-2-oxo-3-ureido-1,2,3,4-tetrahydroquinolin-7-carboxamide]	–	–	3 to 30 µM
